# Read-outs that look alike come from different tables or passages of the source. Non-standard residues stand in square brackets, D forms with d. Residues, ends and D or L forms follow the SMILES beside them. *: point of attachment. Dansyl = CN(C)c1cccc2c(S(=O)(=O)*)cccc12; Sar = CNCC(=O)O
# Key:
# PEPT1 = molecular target: T1, PEPT1 (Homo sapiens, UniProt P46059); assay: Transport currents (Vmax vs Gly-Sar) in Xenopus oocytes transfected with PEPT1, two-electrode voltage-clamp; type: cell-based; conditions: for Substrate quality for PEPT1 relative to Gly-Sar (in words): cells transfected with PEPT1; for PEPT1 (% Gly-Sar) drug only (Vmax) / PEPT1 (% Gly-Sar) +XP10973 (Vmax): oocytes transfected with PEPT1; for PEPT1 (% Gly-Sar) +XP10973 (Vmax): in the presence of inhibitor XP10973
# T1 construct: The complete open reading frame was cloned into a Xenopus oocyte expression plasmid; expressed in transfected cells; host or cells: Xenopus oocytes injected with cRNA
# T1 sequence (P46059 1-708): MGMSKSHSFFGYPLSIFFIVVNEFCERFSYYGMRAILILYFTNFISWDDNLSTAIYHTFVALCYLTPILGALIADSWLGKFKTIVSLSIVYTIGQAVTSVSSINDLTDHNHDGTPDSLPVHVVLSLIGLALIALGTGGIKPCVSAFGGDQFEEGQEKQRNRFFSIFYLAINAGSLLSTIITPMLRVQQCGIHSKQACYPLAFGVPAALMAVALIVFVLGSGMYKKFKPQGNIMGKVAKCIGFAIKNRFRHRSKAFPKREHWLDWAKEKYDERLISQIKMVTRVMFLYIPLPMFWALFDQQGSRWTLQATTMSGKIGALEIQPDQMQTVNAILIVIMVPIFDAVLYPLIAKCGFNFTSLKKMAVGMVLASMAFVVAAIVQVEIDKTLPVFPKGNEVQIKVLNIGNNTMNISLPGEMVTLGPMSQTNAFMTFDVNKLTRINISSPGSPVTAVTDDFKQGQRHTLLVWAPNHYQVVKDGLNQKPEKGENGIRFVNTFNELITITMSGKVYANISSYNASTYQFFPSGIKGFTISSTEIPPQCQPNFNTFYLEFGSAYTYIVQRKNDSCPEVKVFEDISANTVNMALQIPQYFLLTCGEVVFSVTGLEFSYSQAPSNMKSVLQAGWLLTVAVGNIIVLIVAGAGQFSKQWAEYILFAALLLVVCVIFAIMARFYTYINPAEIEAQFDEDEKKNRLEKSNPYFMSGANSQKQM
# Experimental: (§1) The complete open reading frame was cloned into a Xenopus oocyte expression plasmid, linearized, and cRNA was generated by run-off transcription using the T7 polymerase. Xenopus oocytes were prepared and maintained as previously described
# (§2) (Collins, et al., 1997) and injected with 10-30 ng RNA. Transport currents were measured 2-4 days after injection using two-electrode voltage-clamp (Axon Instruments). All experiments were performed using a modified oocyte Ringers solution (90 mM NaCl, 2 mM KCl, 1.8 mM CaCl2, 1 mM MgCl2, and 10 mM NaHEPES, pH 6.8). The membrane potential of oocytes was held at −60 mV and current traces acquired using PowerLab software. Responses to compounds were measured in the presence and absence of a specific non-transported inhibitor (XP10973) for PEPT1 and PEPT2. Data are expressed as the currents that are blocked by XP10973
# PEPT2 = molecular target: T2, PEPT2 (Homo sapiens, UniProt Q16348, S640G); assay: Transport currents (Vmax vs Gly-Sar) in Xenopus oocytes transfected with PEPT2, two-electrode voltage-clamp; type: cell-based; conditions: for Substrate preference PEPT2 versus PEPT1 (in words): comparison of PEPT2 and PEPT1 transfected oocytes
# T2 construct: The complete open reading frame was cloned into a Xenopus oocyte expression plasmid; expressed in transfected cells; host or cells: Xenopus oocytes injected with cRNA
# T2 sequence (Q16348 1-729 S640G): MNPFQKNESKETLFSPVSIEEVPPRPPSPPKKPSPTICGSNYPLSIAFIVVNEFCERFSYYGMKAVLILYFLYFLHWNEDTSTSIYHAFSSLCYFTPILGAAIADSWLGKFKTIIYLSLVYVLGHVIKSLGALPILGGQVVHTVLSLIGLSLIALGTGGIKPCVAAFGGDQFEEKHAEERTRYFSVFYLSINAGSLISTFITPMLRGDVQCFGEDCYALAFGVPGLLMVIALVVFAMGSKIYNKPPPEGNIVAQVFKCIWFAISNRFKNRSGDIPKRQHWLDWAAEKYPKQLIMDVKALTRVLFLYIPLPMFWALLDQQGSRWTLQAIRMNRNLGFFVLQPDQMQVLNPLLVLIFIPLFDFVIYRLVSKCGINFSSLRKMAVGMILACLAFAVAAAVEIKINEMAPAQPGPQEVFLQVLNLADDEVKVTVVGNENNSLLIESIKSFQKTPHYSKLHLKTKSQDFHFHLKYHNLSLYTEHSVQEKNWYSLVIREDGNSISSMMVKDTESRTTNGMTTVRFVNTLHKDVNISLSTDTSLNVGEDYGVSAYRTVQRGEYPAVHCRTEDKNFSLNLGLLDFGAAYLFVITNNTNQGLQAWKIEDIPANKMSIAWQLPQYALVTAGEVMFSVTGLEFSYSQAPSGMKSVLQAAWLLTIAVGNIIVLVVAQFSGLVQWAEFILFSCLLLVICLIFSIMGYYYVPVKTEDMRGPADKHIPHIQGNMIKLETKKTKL
# Experimental: as §1
# as §2, with “Transport” for “(Collins, et al., 1997) and injected with 10-30 ng RNA. Transport”
# Caco-2 cells = type: in vitro ADME
# Experimental: Caco-2 cells were plated on Millipore transwell filters and allowed to differentiate for 18-22 days. Integrity of the monolayers was confirmed by lack of radiolabeled inulin transport across the monolayer. Compounds were added to the apical chamber, and the appearance of compounds in the basolateral chamber were measured at various timepoints by scintillation counting or LC/MS/MS.
# FIGS. 1 and 2 show uptake of cephradine and cefadroxil by Caco-2 cells in the presence and absence of XP10973 inhibitor. […] However, as described above, cephradine and cefadroxil are poor substrates for PEPT1 and good substrates for PEPT2.
# [1] = oocytes transfected with PEPT2, drug only
# [2] = oocytes transfected with PEPT2, in the presence of inhibitor XP10973
SMILES,Substrate quality for PEPT1 relative to Gly-Sar (in words) (PEPT1),PEPT1 (% Gly-Sar) drug only (Vmax) (PEPT1) [% Gly-Sar],PEPT1 (% Gly-Sar) +XP10973 (Vmax) (PEPT1) [% Gly-Sar],Substrate quality for PEPT2 relative to Gly-Sar (in words) (PEPT2; cells transfected with PEPT2),Substrate preference PEPT2 versus PEPT1 (in words) (PEPT2),PEPT2 (% Gly-Sar) drug only (Vmax) (PEPT2; [1]) [% Gly-Sar],PEPT2 (% Gly-Sar) +XP10973 (Vmax) (PEPT2; [2]) [% Gly-Sar],Inhibition of PEPT1 transport (in words) (PEPT1),Inhibition of PEPT2 transport (in words) (PEPT2),Uptake by Caco-2 cells (in words) (Caco-2 cells),PEPT2 (% Gly-Sar) +XP10973 (Vmax) (PEPT2) [% Gly-Sar],PEPT2 (% Gly-Sar) drug only (Vmax) (PEPT2) [% Gly-Sar],Substrate quality for PEPT2 relative to Gly-Sar (in words) (PEPT2)
"N[C@@H](C(=O)N[C@@H]1C(=O)N2C(C(=O)O)=C(Cl)CS[C@H]12)c1ccccc1 [Cefaclor, cefaclor]",relatively poor susbstrates,4,1.6,relatively good substrates,better substrates for PEPT2 than they are for PEPT1,148,22,,,,,,
CC(C)C[C@H](NC(=O)[C@@H](N)CCCCNS(=O)(=O)c1cccc2c(N(C)C)cccc12)C(=O)O [XP10973] (H-Lys(Dansyl)-Leu-OH),,,,,,,,specific inhibitor,specific inhibitor,,,,
"CC1=C(C(=O)O)N2C(=O)[C@@H](NC(=O)[C@H](N)c3ccc(O)cc3)[C@H]2SC1 [Cephadroxil, cefadroxil]",relatively poor susbstrates,18,2.1,relatively good substrates,better substrates for PEPT2 than they are for PEPT1,96,27,,,taken up,,,
"CC1(C)S[C@@H]2[C@H](NC(=O)[C@H](N)c3ccc(O)cc3)C(=O)N2[C@H]1C(=O)O [Amoxacillin, amoxacillin]",relatively poor susbstrates,1.3,1.1,,,,,,,,15,85,relatively good substrates
"CC1=C(C(=O)O)N2C(=O)[C@@H](NC(=O)[C@H](N)C3=CCC=CC3)[C@H]2SC1 [Cephradine, cephradine]",relatively poor susbstrates,3.5,1.9,relatively good substrates,better substrates for PEPT2 than they are for PEPT1,159,37,,,taken up,,,
CN(CC(=O)O)C(=O)CN [Gly-Sar] (H-Gly-[Sar]-OH),,100,16,,,100,12,,,,,,

# From patent US7919454B2, “Methods of treating using conjugates transported by a PEPT2 transporter” (XenoPort, Inc., priority 2001, dated 2011)
